For one data set, the system named is P2X3. To be noted: oral; cited from earlier work.
For data set [1] the following is noted: local delivery; cited from earlier work.
The conditions of data set [2]: preclinical models; cited from earlier work.
Data set [3] can be described thus: Dissolution in Fasted State Simulated Gastric Fluid (FaSSGF), manual experiment, 37 °C. The note with it: for Solubility: 37 °C. The format is physicochemical. As to the method: The dissolution in Fasted State Simulated Gastric Fluid (FaSSGF) of mesylate salt Form 2 of the compound A of Example 2 and esylate salt Form 1 of Example 6 in comparison with the free base Form A and with other salts was tested by means of manual experiment. The medium for simulated oral fluids was FaSSGF obtained from Biorelevant.com Ltd. The experiments were conducted for 60 minutes at 37 °C.
General preparation of salts: in a round-bottomed flask, 200 mg of compound A free base Form A according to Example 1 (0.52 mmol) were suspended in 5 ml of solvent and stirred at RT. Acetone was employed for bromide, ethanedisulfonate, malonate, sulfate, saccharinate, tosylate, orotate, besylate, hemisulfate, phosphate and tartrate salts; water was employed for chloride salt; ethyl formate was employed for maleate, oxalate, gentisicate, fumarate and mandelate salts; tetrahydrofuran was employed for camphorsulfonate and pamoate salts; isopropyl acetate was employed for 4-hydroxybenzoate and methanol for camphorate salt. The corresponding acid was added under stirring in equimolar amount (except for hemisulfate, added in 0.5 molar amount). After 1 hour the crystalline solid was isolated by filtration, washed with the corresponding solvent (2×1 ml) and dried under nitrogen for 2 hours.
The quantification of the dissolved amount was done by LC/UV system at different checkpoints up to 60 minutes. The saturation solution concentration was around 25-30 mg/ml. […] In a second experiment, the quantification was repeated with saturation solution concentration 170 mg/ml for the mesylate salt Form 2 and 100 mg/ml for the esylate salt Form 1. The results are reported in tables 8A, 8B, 8C, 8D and FIG. 28.

The nature of data set [4]: Comparative stability at 40 °C and 75% RH at open conditions (UPLC/UV and XRPD). The format is physicochemical. To be noted: 40 °C/75% RH open. As to the method:
In a second experiment, approximately 100 mg of compound A mesylate salt Form 2 according to Example 2, free base Form A according to Example 1 and esylate salt Form 1 according to Example 6 were stored in three open amber glass vials covered with filter paper to simulate open conditions. The samples were stored in a stability chamber at 75% RH and 40 °C to compare their stability. At the time points 0, 28, 56, 84 days the corresponding samples were removed from the stability chambers. After conditioning at RT, the samples were analyzed by UPLC/UV and XRPD.

A short description of data set [5]: Two-sector dissolution study (FaSSGF then FaSSIF), parachute effect. The format is physicochemical. The note with it: third experiment. As to the method: The dissolution behaviour of mesylate salt Form 2 of compound A was studied in a two-sector model in comparison with free base Form A to evaluate a possible “spring-parachute effect”.
The parachute effect is observable in two-sector dissolution studies. A test compound is incubated with FaSSGF and its concentration is monitored over time. FaSSIF is then added to the solution whilst continuing the monitoring. The period of time in which the test compound remains in solution without or before precipitating refers to the supersaturation time and represents the parachute effect.
The experiment was conducted using DISS Profiler 6 Channel Pion. The free base Form A and mesylate salt Form 2 of compound A were each incubated in 8 ml of FaSSGF (pH 1.6) for 20 minutes at the concentration of 350 mg/250 ml. 16 ml of FaSSIF concentrated 1.5× (pH 6.5) was added with an incubation time of 180 minutes. The resulting target pH should be approximately 5-6. The experiment was conducted at 37 °C. The entire dissolution profile was monitored until the end of the experiment to evaluate a possible parachute effect, its duration and to evaluate the maximum solubility reached after the addition of FaSSIF.
A second experiment was conducted, with an additional step of adjusting the pH to 6.5 after FaSSIF addition. Both free base Form A and mesylate salt Form 2 of compound A were tested.
A third experiment was conducted on esylate salt Form 1 of compound A, using the same protocol of the second experiment, with free base Form A and mesylate salt Form 2 of compound A as controls. The experiment was aimed at evaluating comparatively a possible parachute effect of the esylate salt and its duration. Precipitation of the free base was observed after roughly 20 minutes, while precipitation of the esylate salt and mesylate salt were observed after 30 and 40 minutes respectively.

Data set [6] is described as follows: Dynamic vapour sorption (DVS), hygroscopicity. It counts as physicochemical. The note with it: between 20% and 80% RH. The method, then:
Moisture sorption/desorption data were collected on a TA Instruments Vapor Sorption Analyzer Q5000SA.
First step: sorption data was collected in the range 40% to 90% relative humidity (RH).
Second Step: desorption, sorption and desorption data were collected over a range of 0% to 90% RH at 10% RH intervals under a nitrogen purge. Samples were not dried prior to analysis. Equilibrium criteria used for analysis were less than 0.100% weight change in 20 minutes, with a maximum equilibration time of 1 hour if the weight criterion was not met. Data were not corrected for the initial moisture content of the samples. NaBr was used as humidity verification.
Moisture sorption/desorption data were also collected on a ProUmid SnS 23 equipped with a 23 autosampler following Method 1.
In the first step sorption data was collected in the range 0% to 90% RH. Samples were not dried prior to analysis.
In the second Step desorption, sorption and desorption data were collected over a range of 0% to 90% (RH) at 10% RH intervals under a nitrogen purge. Data were not corrected for the initial moisture content of the samples.

Where [7] appears, read: second experiment (saturation conc. 170 mg/ml mesylate, 100 mg/ml esylate), 0 min.
Where [8] appears, read: first experiment (saturation conc. around 25-30 mg/ml), 5 min.

Values after ≈ are worked out from the molar mass of the structure shown. “Also recorded” adds a separate entry of the source. Where a name gives a salt, the structure may show the parent alone.

With `COc1cc(C(C)C)c(Oc2cnc(N)nc2N)cc1S(N)(=O)=O` [AF-219], the “Hypersensitivity of the cough reflex” value in the data set on P2X3 is on record as “dramatically reduced”.

Take `Nc1ncnc2c1ncn2[C@@H]1O[C@H](COP(=O)(O)OP(=O)(O)OP(=O)(O)O)[C@@H](O)[C@H]1O` [ATP, Adenosine 5-TriPhosphate]: in data set [1], the Cough and bronchospasm entry was “initiates cough and bronchospasm”. In addition, the “Citric acid-evoked and histamine-evoked cough” value in data set [2] was “enhances citric acid-evoked and histamine-evoked cough”.

As to `COc1cc(-c2ccc(F)cn2)cc2c(N[C@H](C)c3noc(C)n3)ncnc12` [besylate], the Solubility in data set [3] (setting [7]) is 1010 µg/mL; in data set [3] (second experiment, 60 min), 21840 µg/mL.

As for `COc1cc(-c2ccc(F)cn2)cc2c(N[C@H](C)c3noc(C)n3)ncnc12` [bromide], the Solubility is 720 µg/mL in data set [3] (setting [7]); 2520 µg/mL in data set [3] (second experiment, 15 min); 2880 µg/mL in data set [3] (second experiment, 60 min).

`COc1cc(-c2ccc(F)cn2)cc2c(N[C@H](C)c3noc(C)n3)ncnc12` [camphorsulfonate]: the Solubility in data set [3] (setting [7]) was 510 µg/mL; in data set [3] (second experiment, 15 min), 10510 µg/mL; in data set [3] (second experiment, 30 min), 11840 µg/mL; in data set [3] (second experiment, 60 min) it was 13450 µg/mL.

`COc1cc(-c2ccc(F)cn2)cc2c(N[C@H](C)c3noc(C)n3)ncnc12` [chloride]: the Solubility in data set [3] (setting [7]) was 690 µg/mL; in data set [3] (second experiment, 15 min), 8630 µg/mL; in data set [3] (second experiment, 60 min), 10870 µg/mL.

Turning to `COc1cc(-c2ccc(F)cn2)cc2c(N[C@H](C)c3noc(C)n3)ncnc12` [esylate salt Form 1, (R)-6-(5-fluoropyridin-2-yl)-8-methoxy-N-(1-(5-methyl-1,2,4-oxadiazol-3-yl)ethyl)quinazolin-4-amine], in data set [4] (84 days), the Stability entry was “surprisingly good stability during stressed storage”. In addition, the “% area main peak (LC/UV)” value in data set [4] (0 days) was 99.9 % area. Further, the Solubility in data set [3] (first experiment (saturation conc. around 25-30 mg/ml), 5 min, listed as esylate Form 1, 5 min) is 24270 µg/mL; in data set [3] (first experiment, 10 min, listed as esylate Form 1, 10 min), 24740 µg/mL; in data set [3] (first experiment, 20 min, listed as esylate Form 1, 20 min), 24870 µg/mL; in data set [3] (first experiment, 40 min, listed as esylate Form 1, 40 min) it was 24760 µg/mL; in data set [3] (first experiment, 60 min) it was at least 25000 µg/mL; in data set [3] (first experiment, 60 min, listed as esylate Form 1, 60 min), 24590 µg/mL. Also, the Solubility in data set [3] (second experiment, 30 min, listed as esylate Form 1, 30 min) was 61300 µg/mL; in data set [3] (second experiment, 60 min, listed as esylate Form 1, 60 min) it was 68460 µg/mL. Besides, the “Solubility compared to free base Form A” value in data set [3] (60 minutes) was “consistently higher solubility than the free base Form A during the 60 minutes time”. In addition, in data set [3] (first experiment, saturation conc. around 25-30 mg/ml), the Dissolution entry is on record as “completely dissolved”. The “Duration of the parachute effect compared to free base Form A” value in data set [5] is given as “longer duration of the parachute effect”. In data set [5] (protocol of the second experiment), this compound showed a Time of precipitation of 30 min.

As to `COc1cc(-c2ccc(F)cn2)cc2c(N[C@H](C)c3noc(C)n3)ncnc12` [ethanedisulfonate], the Solubility was 490 µg/mL in data set [3] (setting [7]) and 1060 µg/mL in data set [3] (second experiment, 60 min).

As to `COc1cc(-c2ccc(F)cn2)cc2c(N[C@H](C)c3noc(C)n3)ncnc12` [fumarate], the Solubility was 3290 µg/mL in data set [3] (setting [8]); 3360 µg/mL in data set [3] (first experiment, 10 min); 3350 µg/mL in data set [3] (first experiment, 20 min); 3610 µg/mL in data set [3] (first experiment, 40 min); 3580 µg/mL in data set [3] (first experiment, 60 min); 550 µg/mL in data set [3] (setting [7]). Moreover, the Solubility in data set [3] (second experiment, 15 min) was 4980 µg/mL; in data set [3] (second experiment, 30 min) it was 5760 µg/mL; in data set [3] (second experiment, 60 min), 5890 µg/mL.

On to `COc1cc(-c2ccc(F)cn2)cc2c(N[C@H](C)c3noc(C)n3)ncnc12` [mandelate], for which the Solubility in data set [3] (setting [7]) was 1280 µg/mL (≈ 3370 µM); in data set [3] (second experiment, 15 min) it was 10880 µg/mL (≈ 28600 µM); in data set [3] (second experiment, 30 min), 9300 µg/mL (≈ 24400 µM); in data set [3] (second experiment, 60 min) it was 10990 µg/mL (≈ 28900 µM).

`COc1cc(-c2ccc(F)cn2)cc2c(N[C@H](C)c3noc(C)n3)ncnc12` [mesylate salt Form 6, (R)-6-(5-fluoropyridin-2-yl)-8-methoxy-N-(1-(5-methyl-1,2,4-oxadiazol-3-yl)ethyl)quinazolin-4-amine]: in data set [6], the Hygroscopicity entry is reported as “No hygroscopicity was noted; also recorded: substantially no hygroscopicity” and the Total water uptake was found to be 0.3%.

As for `COc1cc(-c2ccc(F)cn2)cc2c(N[C@H](C)c3noc(C)n3)ncnc12` [oxalate], the Solubility in data set [3] (setting [8]) is 90 µg/mL; in data set [3] (first experiment, 10 min), 90 µg/mL; in data set [3] (first experiment, 20 min) it was 80 µg/mL; in data set [3] (first experiment, 40 min), 90 µg/mL; in data set [3] (first experiment, 60 min), 90 µg/mL; in data set [3] (setting [7]), 1730 µg/mL. In addition, the Solubility in data set [3] (second experiment, 15 min) is 10710 µg/mL; in data set [3] (second experiment, 30 min), 11700 µg/mL; in data set [3] (second experiment, 60 min) it was 13870 µg/mL.

`COc1cc(-c2ccc(F)cn2)cc2c(N[C@H](C)c3noc(C)n3)ncnc12` [pamoate]: the Solubility was 30 µg/mL in data set [3] (setting [7]); 4890 µg/mL in data set [3] (second experiment, 15 min); 6520 µg/mL in data set [3] (second experiment, 60 min).

For the compound `COc1cc(-c2ccc(F)cn2)cc2c(N[C@H](C)c3noc(C)n3)ncnc12` [phosphate], the Solubility in data set [3] (setting [7]) is 210 µg/mL; in data set [3] (second experiment, 15 min) it was 15210 µg/mL; in data set [3] (second experiment, 30 min), 14850 µg/mL; in data set [3] (second experiment, 60 min) it was 14320 µg/mL.

`COc1cc(-c2ccc(F)cn2)cc2c(N[C@H](C)c3noc(C)n3)ncnc12` [saccharinate]: the Solubility was 900 µg/mL (≈ 2370 µM) in data set [3] (setting [8]); 1030 µg/mL (≈ 2710 µM) in data set [3] (first experiment, 10 min); 1090 µg/mL (≈ 2870 µM) in data set [3] (first experiment, 20 min); 1080 µg/mL (≈ 2840 µM) in data set [3] (first experiment, 40 min); 1020 µg/mL (≈ 2680 µM) in data set [3] (first experiment, 60 min); 430 µg/mL (≈ 1130 µM) in data set [3] (setting [7]). Besides, the Solubility in data set [3] (second experiment, 15 min) is 800 µg/mL (≈ 2100 µM); in data set [3] (second experiment, 30 min) it was 870 µg/mL (≈ 2290 µM); in data set [3] (second experiment, 60 min), 830 µg/mL (≈ 2180 µM).

As to `COc1cc(-c2ccc(F)cn2)cc2c(N[C@H](C)c3noc(C)n3)ncnc12` [tosylate], the Solubility in data set [3] (setting [7]) was 610 µg/mL; in data set [3] (second experiment, 15 min) it was 4670 µg/mL; in data set [3] (second experiment, 30 min), 4860 µg/mL; in data set [3] (second experiment, 60 min), 4970 µg/mL.
